The values below come from ChEMBL document CHEMBL1149218, “Predicting pharmacophore signals for post-coital antifertility activity of 1-trifluoromethyl-1,2,2-triphenylethylene derivatives: a statistical approximation using E-state index” (2004).

SMILES strings stand for the structures.

This assay concerns Rattus norvegicus. The assay can be described thus: Effective oral dose of compound for Post-coital antifertility activity was determined in rats. It counts as functional. The arrangement: unit not given here.

With `COc1ccc(/C(=C(\c2ccccc2)C(F)(F)F)c2ccccc2)cc1`, the pED50 is recorded as 1.602.

On to `FC(F)(F)C(=C(c1ccccc1)c1ccccc1)c1cccs1`, for which the pED50 was 2.914. The value for `Fc1ccc(/C(=C(/c2ccccc2)C(F)(F)F)c2ccccc2)cc1` was 2.491; that for `FC(F)(F)C(F)(F)C(=C(c1ccccc1)c1ccccc1)c1ccccc1` was 2.301. Take `FC(F)(F)C(=C(c1ccccc1)c1ccccc1)c1ccccc1`: the pED50 came to 2.079. To `FC(F)(F)C(=C(c1ccccc1)c1ccccc1)c1ccc(C(F)(C(F)(F)F)C(F)(F)F)cc1` belongs 1.204; to `COc1ccc(C(=C(c2ccccc2)C(F)(F)F)c2ccc(OC)cc2)cc1`, 2.079; to `COc1ccc(/C(=C(/c2ccccc2)C(F)(F)F)c2ccccc2)cc1`, 1.114. In turn, `FC(F)(F)C(=C(c1ccccc1)c1ccccc1)c1ccc(C(F)(F)F)cc1` registered a pED50 of 1.477.

For `FC(F)(F)C(=C(c1ccccc1)c1ccccc1)c1cccc(C(F)(F)F)c1`, the pED50 was found to be 1.477.

`Cc1ccc(C(=C(c2ccccc2)c2ccccc2)C(F)(F)F)cc1`: the pED50 turned out to be 2.681.

`COc1ccc(C(=C(c2ccccc2)c2ccccc2)C(F)(F)F)cc1` showed a pED50 of 2.079. To `COc1ccc(/C(=C(/c2ccc(F)cc2)C(F)(F)F)c2ccccc2)cc1` belongs 1.301; to `Fc1cccc(C(=C(c2ccccc2)c2ccccc2)C(F)(F)F)c1`, 1.204; to `Fc1ccc(C(=C(c2ccccc2)c2ccccc2)C(F)(F)F)cc1`, 1.602. The value for `FC(F)(F)C(c1ccccc1)C(c1ccccc1)c1ccccc1` (stereo not drawn) was 2.991. The value for `FC(F)(F)C(=C(c1ccccc1)c1ccccc1)c1ccc(Cl)cc1` was 1.477; that for `Fc1ccccc1C(=C(c1ccccc1)c1ccccc1)C(F)(F)F` was 1.204.
